Data reported in the CheMixHub viscosity set.
± gives the uncertainty stated by the source.

Assay: xn = mol fraction of the nth substance listed

C=CC(=O)OC + CCCCCO
viscosity [mPa·s], 101.33 kPa
Conditions	308.15 K	318.15 K
x1 = 0.0469	2.288 ± 0.013	1.82 ± 0.011
x1 = 0.148	1.725 ± 0.01	1.406 ± 0.009
x1 = 0.2501	1.327 ± 0.008	1.104 ± 0.007
x1 = 0.3489	1.053 ± 0.007	0.89 ± 0.006
x1 = 0.4436	0.86 ± 0.006	0.735 ± 0.005
x1 = 0.5084	0.758 ± 0.005	0.651 ± 0.005
x1 = 0.545	0.708 ± 0.005	0.61 ± 0.005
x1 = 0.6489	0.594 ± 0.005	0.514 ± 0.004
x1 = 0.7484	0.513 ± 0.004	0.445 ± 0.004
x1 = 0.8456	0.454 ± 0.004	0.392 ± 0.004
x1 = 0.9477	0.409 ± 0.004	0.35 ± 0.003

CCCCCCCCCCCCCC(=O)OC + CCCCCO
viscosity [mPa·s], 100 kPa
Conditions	x2 = 0.1012	x2 = 0.2002	x2 = 0.2997	x2 = 0.4007	x2 = 0.4997	x2 = 0.6007	x2 = 0.7006	x2 = 0.7997	x2 = 0.9
293.15 K	4.279 ± 0.17	4.092 ± 0.17	3.927 ± 0.16	3.791 ± 0.15	3.695 ± 0.15	3.592 ± 0.15	3.512 ± 0.14	3.539 ± 0.14	3.679 ± 0.15
298.15 K	3.789 ± 0.15	3.61 ± 0.15	3.474 ± 0.14	3.371 ± 0.14	3.249 ± 0.13	3.162 ± 0.13	3.1 ± 0.13	3.1 ± 0.13	3.191 ± 0.13
303.15 K	3.336 ± 0.14	3.189 ± 0.13	3.071 ± 0.13	2.96 ± 0.12	2.868 ± 0.12	2.794 ± 0.11	2.729 ± 0.11	2.72 ± 0.11	2.795 ± 0.11
308.15 K	2.932 ± 0.12	2.809 ± 0.12	2.701 ± 0.11	2.603 ± 0.11	2.524 ± 0.1	2.454 ± 0.1	2.397 ± 0.098	2.384 ± 0.098	2.429 ± 0.099
313.15 K	2.641 ± 0.11	2.533 ± 0.1	2.43 ± 0.099	2.342 ± 0.096	2.268 ± 0.093	2.197 ± 0.09	2.15 ± 0.088	2.126 ± 0.087	2.159 ± 0.088
318.15 K	2.42 ± 0.099	2.318 ± 0.095	2.234 ± 0.091	2.142 ± 0.088	2.071 ± 0.085	2.006 ± 0.082	1.96 ± 0.08	1.938 ± 0.079	1.949 ± 0.08
323.15 K	2.18 ± 0.089	2.089 ± 0.086	2.009 ± 0.082	1.931 ± 0.079	1.865 ± 0.076	1.803 ± 0.074	1.764 ± 0.072	1.73 ± 0.071	1.738 ± 0.071

CCCCCOC(C)=O + CCCCCO
viscosity [mPa·s], 101.33 kPa
Conditions	x1 = 0.0982	x1 = 0.1951	x1 = 0.3024	x1 = 0.4009	x1 = 0.5015	x1 = 0.6044	x1 = 0.7081	x1 = 0.8063	x1 = 0.9007
293.15 K	3.552 ± 0.36	3.076 ± 0.33	2.623 ± 0.29	2.266 ± 0.26	1.952 ± 0.24	1.675 ± 0.21	1.436 ± 0.2	1.241 ± 0.18	1.079 ± 0.17
303.15 K	2.583 ± 0.29	2.279 ± 0.26	1.984 ± 0.24	1.747 ± 0.22	1.534 ± 0.2	1.343 ± 0.19	1.174 ± 0.17	1.034 ± 0.16	0.915 ± 0.15
313.15 K	2.039 ± 0.24	1.811 ± 0.23	1.588 ± 0.21	1.407 ± 0.19	1.244 ± 0.18	1.097 ± 0.17	0.966 ± 0.16	0.857 ± 0.15	0.763 ± 0.14
323.15 K	1.198 ± 0.18	1.103 ± 0.17	1.001 ± 0.16	0.924 ± 0.15	0.847 ± 0.15	0.776 ± 0.14	0.709 ± 0.14	0.652 ± 0.13	0.601 ± 0.13

C1CCC2=[NH+]CCCN2CC1.c1nc[n-]n1 + CCCCO
303.15 K, 100 kPa
Conditions	viscosity [mPa·s]
x1 = 0.1001	6.47 ± 0.14
x1 = 0.2	12.31 ± 0.28
x1 = 0.2999	22.82 ± 0.52
x1 = 0.4003	42.54 ± 1
x1 = 0.4989	74.34 ± 2
x1 = 0.6002	128.6 ± 5
x1 = 0.7008	204.7 ± 11
x1 = 0.7993	423.5 ± 33
x1 = 0.9002	608.2 ± 55

C=CC(=O)OC + CCCCO
viscosity [mPa·s], 101.33 kPa
Conditions	308.15 K	318.15 K
x1 = 0.0466	1.721 ± 0.01	1.393 ± 0.009
x1 = 0.1448	1.322 ± 0.008	1.115 ± 0.007
x1 = 0.2429	1.042 ± 0.007	0.908 ± 0.006
x1 = 0.3387	0.847 ± 0.006	0.755 ± 0.005
x1 = 0.4481	0.688 ± 0.005	0.625 ± 0.005
x1 = 0.5003	0.63 ± 0.005	0.575 ± 0.004
x1 = 0.5436	0.589 ± 0.005	0.539 ± 0.004
x1 = 0.6469	0.512 ± 0.004	0.468 ± 0.004
x1 = 0.7461	0.459 ± 0.004	0.416 ± 0.004
x1 = 0.8469	0.422 ± 0.004	0.375 ± 0.003
x1 = 0.9456	0.399 ± 0.004	0.346 ± 0.003
